Data: patent US8044198B2, “Sirtuin modulating compounds” (Sirtris Pharmaceuticals, Inc., priority 2005, dated 2011)
Read-outs that look alike come from different tables or passages of the source.

Target: T1, SIRT1 (Homo sapiens, UniProt Q96EB6)
T1 sequence (Q96EB6 1-747): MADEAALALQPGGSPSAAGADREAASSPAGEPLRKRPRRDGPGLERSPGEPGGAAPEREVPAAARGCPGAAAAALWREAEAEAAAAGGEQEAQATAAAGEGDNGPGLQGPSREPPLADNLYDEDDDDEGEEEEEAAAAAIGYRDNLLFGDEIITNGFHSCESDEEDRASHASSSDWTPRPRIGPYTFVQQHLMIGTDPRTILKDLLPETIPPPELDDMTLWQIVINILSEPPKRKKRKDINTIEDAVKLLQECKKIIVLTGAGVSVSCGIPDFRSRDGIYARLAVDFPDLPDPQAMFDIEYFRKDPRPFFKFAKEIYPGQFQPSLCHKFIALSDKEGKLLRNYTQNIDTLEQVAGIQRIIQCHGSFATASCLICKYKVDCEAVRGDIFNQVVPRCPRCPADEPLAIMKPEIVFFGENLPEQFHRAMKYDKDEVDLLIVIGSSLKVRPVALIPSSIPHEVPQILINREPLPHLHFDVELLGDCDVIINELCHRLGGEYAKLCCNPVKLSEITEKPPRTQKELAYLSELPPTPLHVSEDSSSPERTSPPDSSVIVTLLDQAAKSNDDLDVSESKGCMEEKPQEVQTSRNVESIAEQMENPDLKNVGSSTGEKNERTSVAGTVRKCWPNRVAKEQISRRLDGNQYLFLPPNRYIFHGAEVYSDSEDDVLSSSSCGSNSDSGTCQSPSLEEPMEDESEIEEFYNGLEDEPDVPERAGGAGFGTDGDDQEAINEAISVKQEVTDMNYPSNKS
Test: SIRT1 mass spectrometry (MS) based deacetylation assay; as to FOLD ACT. MS: test concentration or dose not given here
Format: biochemical
Conditions: for EC50: read-out: ED50 MS ASSAY

[1] = SIRT1 activation, mass spectrometry assay
[2] = fold activation of SIRT1, mass spectrometry assay
[3] = fold activation of SIRT1 as determined by MS
[4] = Sirt1 activators, mass spectrometry assay
[5] = Sirt1 activators, fold activation as determined by MS
[6] = SIRT1 fold activation as determined by MS

EC50 [1] [µM]	EC50 [4] [µM]	FOLD ACT. MS [5]	Compound	also measured
< 5			COc1cc(C(=O)Nc2ccccc2-c2nc3ccccc3[nH]2)cc(OC)c1OC [Compound 293]	FOLD ACT. MS [2]: A (A (Fold activation >250%))
< 5			COc1ccc(C(=O)Nc2cccc(-c3nc4cnccc4s3)c2)c(OC)c1 [Compound 272]	FOLD ACT. MS [2]: B (B (Fold Activation <250%))
5 to 50			COc1cc(C(=O)Nc2cccc(-c3cn4cccc(C)c4n3)c2)cc(OC)c1OC [Compound 131]	FOLD ACT. MS [3]: A (A (Fold activation >250%))
5 to 50			COc1ccc(C(=O)Nc2cc(CN(C)C)cc(-c3nc4ncccc4o3)c2)c(OC)c1 [Compound 158]	FOLD ACT. MS [3]: B (B (Fold Activation <250%))
> 150			COc1ccc(C(=O)Nc2ccccc2-c2nc3ccccn3c2CN2CCNCC2)cc1OC [Compound 364]	FOLD ACT. MS [2]: A (A (Fold activation >250%))
> 150			COc1cc(C(=O)Nc2sccc2-c2nc3ccccc3s2)cc(OC)c1OC [Compound 144]	
< 5			COc1ccc(C(=O)Nc2cccc(-c3nc4cccnc4[nH]3)c2)cc1OC [Compound 185]	FOLD ACT. MS [3]: A (A (Fold activation >250%))
> 150			COc1ccc(S(=O)(=O)Nc2cncc(-c3nc4ncccc4o3)c2)cc1OC [Compound 74]	
	< 5		COC(=O)c1cccc(NC(=S)Nc2cccc(-c3nc4ccncc4s3)c2)c1 [Compound 473]	
	5 to 50	A (A (Fold activation >250%))	COc1cc(C(=O)Nc2ccccc2-c2nc3cccnc3[nH]2)ccc1CN1CCNCC1 [Compound 538]	
	5 to 50	B (B (Fold Activation <250%))	COc1cc(NC(=S)Nc2cc(-c3nc4ncccc4o3)ccn2)cc(OC)c1OC [Compound 663]	
5 to 50			COc1cc(OC)cc(C(=O)Nc2ccccc2-c2nc3c(CN4CCNCC4)ccnc3s2)c1 [Compound 723]	FOLD ACT. MS [6]: A (A (Fold activation >250%))
5 to 50			COc1ccccc1C(=O)Nc1cccc(-c2cn3ccsc3n2)c1 [Compound 132]	FOLD ACT. MS [3]: A (A (Fold activation >250%))
	< 5	A (A (Fold activation >250%))	CC(=O)N1CCN(Cc2csc3nc(-c4ccccc4NC(=O)c4cnc5ccccc5n4)cn23)CC1 [Compound 651]	
	< 5	B (B (Fold Activation <250%))	Cc1cc(C)cc(C(=O)Nc2ccccc2-c2nc3ncccc3o2)c1 [Compound 482]	
5 to 50			COc1ccc(C(=O)Nc2cccc(-c3csc(-c4ccccc4)n3)c2)cc1OC [Compound 84]	FOLD ACT. MS [3]: B (B (Fold Activation <250%))
> 150			COc1ccc(C(=O)Nc2ccc(-c3nc4cccnc4[nH]3)cc2)c(OC)c1 [Compound 151]	
	5 to 50	B (B (Fold Activation <250%))	COc1cc(C(=O)Nc2ccc(-c3nc4ccncc4o3)s2)cc(OC)c1OC [Compound 563]	
	< 5	B (B (Fold Activation <250%))	COc1ccc(C(=O)Nc2ccccc2-c2nc3cccnc3[nH]2)cc1OC [Compound 525]	
	< 5	A (A (Fold activation >250%))	O=C(Nc1ccccc1-c1cn2c(CN3CCNCC3)csc2n1)c1c[nH]c2ccccc12 [Compound 510]	
5 to 50			COc1cc(C(=O)Nc2cccc(-c3nc4sccn4n3)c2)cc(OC)c1OC [Compound 118]	FOLD ACT. MS [3]: A (A (Fold activation >250%))
> 150			COc1ccc(C(=O)Nc2ccc(-c3nc4cccnc4[nH]3)cc2)c(OC)c1OC [Compound 148]	
51 to 100			CN(C)c1cccc(C(=O)Nc2cc(CN3CCNCC3)cc(-c3nc4ncccc4o3)c2)c1 [Compound 160]	FOLD ACT. MS [3]: A (A (Fold activation >250%))
5 to 50			COc1cc(SC)ccc1C(=O)Nc1cccc(-c2nncn2C)c1 [Compound 83]	FOLD ACT. MS [3]: B (B (Fold Activation <250%))
< 5			COc1cc(C(=O)Nc2cccc(-c3nc4ccccc4[nH]3)n2)cc(OC)c1OC [Compound 259]	FOLD ACT. MS [2]: A (A (Fold activation >250%))
> 150			CN(C)Cc1cc(NC(=O)c2cccc(N(C)C)c2)cc(-c2nc3ncccc3o2)c1 [Compound 157]	FOLD ACT. MS [3]: B (B (Fold Activation <250%))
	< 5	A (A (Fold activation >250%))	O=C(Nc1ccccc1-c1cn2c(CNCC(O)CO)csc2n1)c1cnc2ccccc2n1 (stereo not shown) [Compound 676]	

EC50 [1] [µM]	EC50 [4] [µM]	FOLD ACT. MS [5]	Compound	also measured
5 to 50			CN(C)c1cccc(C(=O)Nc2cccc(-c3nc4nc(CN5CCNCC5)ccc4o3)c2)c1 [Compound 166, 3-dimethylamino-N-[3-(5-piperazin-1-ylmethyl-oxazolo[4,5-b]pyridin-2-yl)-phenyl]-benzamide]	FOLD ACT. MS [3]: B (B (Fold Activation <250%))
5 to 50			COc1ccc(C(=O)Nc2cc(CN3CCNCC3)cc(-c3nc4ncccc4o3)c2)c(OC)c1 [Compound 161]	FOLD ACT. MS [3]: A (A (Fold activation >250%))
5 to 50			O=C(Nc1cccc(-c2nc3ccncc3s2)c1)c1ccco1 [Compound 221]	FOLD ACT. MS [2]: B (B (Fold Activation <250%))
5 to 50			CN(C)c1cccc(C(=O)Nc2cccc(-c3nc4ccncc4o3)c2)c1 [Compound 453]	FOLD ACT. MS [2]: B (B (Fold Activation <250%))
5 to 50			COc1cccc(C(=O)Nc2cccc(-c3nc4cccnc4s3)c2)c1OC [Compound 214]	FOLD ACT. MS [3]: B (B (Fold Activation <250%))
	< 5	A (A (Fold activation >250%))	O=C(Nc1ccccc1-c1cn2c(CN3CCNCC3)csc2n1)c1cnccn1 [Compound 543]	
			COc1ccc(C)cc1S(=O)(=O)Nc1cc(-c2nc3ncccc3o2)ccn1 [Compound 653]	IC50 (Sirt1 Inhibitors, mass spectrometry assay): 101 to 150 µM
5 to 50			COc1ccc(C(=O)Nc2ccccc2-c2cnc3ccccc3c2)cc1OC [Compound 414]	FOLD ACT. MS [2]: B (B (Fold Activation <250%))
	5 to 50		COc1cc(C(=O)Nc2ccccc2-c2nc3cc(CN4CCOCC4)cnc3s2)cc(OC)c1OC [Compound 681]	
	5 to 50		CC(Oc1ccccc1)C(=O)Nc1ccccc1-c1nc2ccncc2s1 (stereo not shown) [Compound 463]	
5 to 50			COc1ccc(C(=O)Nc2cccc(-c3cccnc3)c2)cc1OC [Compound 332]	FOLD ACT. MS [2]: B (B (Fold Activation <250%))
	5 to 50		COc1ccc(CNC(=S)Nc2cccc(-c3nc4ccncc4s3)c2)cc1 [Compound 498]	
< 5			O=C(Nc1cccc(-c2nc3ccncc3s2)c1)c1ccc2ccccc2n1 [Compound 307]	FOLD ACT. MS [2]: A (A (Fold activation >250%))
			COc1cc(C(=O)Nc2cccc(-c3nc4ccccc4c(=O)o3)c2)cc(OC)c1OC [Compound 125]	FOLD ACT. MS [3]: B (B (Fold Activation <250%))
5 to 50			COc1cc(C(=O)Nc2ccccc2-c2nc3ccccn3c2CN(C)C)cc(OC)c1OC [Compound 351]	FOLD ACT. MS [2]: B (B (Fold Activation <250%))
	< 5		COc1ccc(NC(=S)Nc2cccc(-c3nc4ccncc4s3)c2)c(OC)c1 [Compound 599]	
	< 5	B (B (Fold Activation <250%))	CN(C)c1ccc(C(=O)Nc2ccccc2-c2nc3ccncc3o2)cc1 [Compound 459]	
	< 5	A (A (Fold activation >250%))	O=C(Nc1ccccc1-c1cn2c(CN3CCNCC3)csc2n1)c1cc(-c2ccccc2)ncn1 [Compound 625]	
	5 to 50	A (A (Fold activation >250%))	COc1cc(C(=O)Nc2ccccc2-c2nc3cccnc3[nH]2)ccc1CN(C)C [Compound 540]	
	5 to 50	A (A (Fold activation >250%))	COc1cc(C(=O)Nc2ccccc2-c2nc3cccnc3[nH]2)cc(OC)c1OC [Compound 522]	
	< 5	B (B (Fold Activation <250%))	COc1cc(OC)cc(C(=O)Nc2ccc(-c3nc4ccncc4o3)s2)c1 [Compound 562]	
	< 5	B (B (Fold Activation <250%))	O=C(Nc1ccccc1-c1cn2c(n1)CCCC2)c1cnc2ccccc2n1 [Compound 548]	
< 5			Cc1ccc(C(=O)Nc2ccccc2-c2nc3ccc(CN4CCNCC4)nc3s2)cc1C [Compound 727]	FOLD ACT. MS [6]: A (A (Fold activation >250%))
	< 5	A (A (Fold activation >250%))	CN(C)c1cccc(C(=O)Nc2ccccc2-c2nc3cc(CN4CCNCC4)cnc3s2)c1 [Compound 593]	
< 5			O=C(Nc1ccccc1-c1nc2ccc(CN3CCNCC3)nc2s1)c1cnc2ccccc2n1 [Compound 690]	FOLD ACT. MS [6]: A (A (Fold activation >250%))
	5 to 50	A (A (Fold activation >250%))	COc1cc(C(=O)Nc2ccccc2-c2nc3cccnc3[nH]2)ccc1CN1CCCCC1 [Compound 536]	
< 5			COc1ccc(-c2ccc(C(=O)Nc3ccccc3-c3cn4c(CN5CCNCC5)csc4n3)o2)cc1 [Compound 736]	FOLD ACT. MS [6]: A (A (Fold activation >250%))
